According to patent publication US20260192003A1, “CHELATING COMPOUNDS AND METHODS OF USES THEREOF” (THE REGENTS OF THE UNIVERSITY OF CALIFORNIA, priority 2023, published 2026):
Like-named read-outs stand apart in the source and are kept apart here. Marks after values point to notes of the source that are not given here.

Columns and labels:
[1] = Potentiometric titration, protonation constants (pKa); assay type: physicochemical; conditions: for ΣpKa: sum of the pKa values tentatively assigned to protonation of the HOPO units
Method: The protonation constants (pKa) of the synthesized ligands were determined potentiometrically in 0.1 M KCl. […] Based on previous studies involving ligands bearing the tetraazacyclododecane backbone,^80-82 the remaining two pKa values likely correspond to protonation of two of the amine groups present in the macrocycle (Table 1). The 1,2-HOPO donors of MeDOTHOPO are approximately 1 pKa unit more basic than those of 3,4,3-LI-(1,2-HOPO) or DOTHOPO.

[2] = Spectrophotometric titration, cumulative formation constants and pM with Fe^3+; assay type: physicochemical; conditions: 25° C., I = 0.1M KCl; for pM, Fe^3+: pM = -log[M]free, [M]tot = 10^−6M, [L]tot = 10^−5M, pH 7.4
Method: The affinity of these ligands for Fe3+ was explored as a representative endogenous metal that could compete with Th^4+ in vivo. The stability constants of DOTHOPO and MeDOTHOPO with Fe^3+ were determined by incremental spectrophotometric titrations, similar to those described for Zr^4+ and Th^4+ in the Supporting Information.
(§1) The log βmlh values reported above are pH-independent absolute stability constants. Because these ligands have differing pKa values, competition between H^+ and the metal of interest under different pH conditions will give rise to different pH-dependent conditional stability constants that are not accurately described by log βML values. To mitigate this issue and allow for direct comparison between ligands, we calculated the pM values (pM=−log[Mfree], where Mfree=solvated metal ions free of complexation by ligand or hydroxide when [L]=10^−5 M and [M]=10^−6 M)^85 for each ligand with the Fe^3+, Zr^4+, and Th^4+ (Table 3).

[3] = UV-vis spectrophotometric titration, cumulative formation constants and pM with Zr^4+; assay type: physicochemical; conditions: 25° C., I = 0.1M KCl; for pM, Zr^4+: pM = -log[M]free, [M]tot = 10^−6M, [L]tot = 10^−5M, pH 7.4, MeDOTHOPO predicted from Table 2 log β
Excerpt: (§2) We next sought to evaluate the thermodynamic stabilities of the Zr^4+ and Th^4+ complexes of DOTHOPO and MeDOTHOPO by measuring their cumulative formation constants (log βmlh, see Supplementary Information for details). […] Above pH 10, the complexes dissociate to yield the free ligand and metal-hydroxide species, which could be leveraged to determine the stability constants of the Zr^4+ and Th^4+ complexes via UV-vis spectrophotometric titrations (FIGS. 2 and 3). […] The pH dependent species distribution diagrams for DOTHOPO with Zr^4+ and Th^4+ are provided in the Supporting Information. Importantly, the metal remains completely bound by the chelator below pH 10 and the major species present at pH 7.4 is the 1:1 ML complex for both metals. […] As such, the log βmlh values of MeDOTHOPO with Zr^4+ and Th^4+ were predicted to be ≥51 and ≥53, respectively, using Hyss (Table 2).
as §1

[4] = UV-vis spectrophotometric titration, cumulative formation constants and pM with Th^4+; assay type: physicochemical; conditions: 25° C., I = 0.1M KCl; for pM, Th^4+: pM = -log[M]free, [M]tot = 10^−6M, [L]tot = 10^−5M, pH 7.4, MeDOTHOPO predicted from Table 2 log β
Excerpt: as §2, §1

[5] = Arsenazo III dye displacement, indirect kinetics of Th^4+ complexation; assay type: physicochemical; conditions: for k2: 5 μM Th^4+, 25 μM Arsenazo III, 75 μM ligand (15 equiv.), 100 mM HEPES (pH 7.4), 25° C.
Method: Another important aspect of chelators for radiopharmaceutical applications is the kinetics of complexation with the radiometal of interest. A ligand must be able to bind the radioactive metal ion rapidly and completely to minimize the extent of radioactive decay before administration in vivo. […] To access the suitability of DOTHOPO and MeDOTHOPO in this context, we sought to determine the kinetics of Th^4+ complexation of these chelators in aqueous solution at 25° C. […] Following literature precedent,^35 the relative rate of metal complexation by these ligands could be studied indirectly using the dye Arsenazo III, which forms highly colored complexes with Th^4+ with a prominent absorbance band at 669 nm.^92 The addition of excess chelator to solutions of Th^4+ and Arsenazo III caused the dye to be displaced and the formation of the metal-chelator complex could be monitored by the disappearance of the absorbance features corresponding to the metal-dye compound (FIG. 4).
The aim of these experiments was to determine a second-order rate constant for the complexation reaction of Th^4+ by DOTHOPO and MeDOTHOPO. […] For comparison purposes, the second-order rate constant of complexation was calculated using the reaction of 15 equiv. of ligand relative to metal (Table 4, see SI for details). The [ThL] (L=DOTHOPO, MeDOTHOPO) complexes form rapidly in aqueous solution. The second-order halflives, calculated for 10 μM each of metal and ligand, are 30 and 18 min for DOTHOPO and MeDOTHOPO respectively. The faster complexation kinetics of MeDOTHOPO compared to DOTHOPO can likely be attributed to the increased flexibility of the ligand.

[6] = cited from earlier work
[7] = 25° C., I = 0.1M KCl; reference 48; cited from earlier work
[8] = 25° C., I = 0.1M KCl; reference 48; cited from earlier work; remark: listed apart in the source
[9] = cited from earlier work; remark: listed apart in the source
[10] = previous work, similar conditions, room temperature, after 2 months; cited from earlier work
[11] = 25° C., I = 0.1M KCl, data taken from Ref. 48
[12] = 25° C., I = 0.1M KCl, reference 48

Structure (SMILES) | pKa1 ([1]; 25° C., I = 0.1M KCl, n = 5) | pKa2 ([1]; 25° C., I = 0.1M KCl, n = 5) | pKa3 ([1]; 25° C., I = 0.1M KCl, n = 5) | pKa4 ([1]; 25° C., I = 0.1M KCl, n = 5) | ΣpKa [1] | log βmih, Fe^3+, [FeLH] [2] | log βmih, Fe^3+, [FeL]^− [2] | pM, Fe^3+ [2] | pM, Zr^4+ [3] | pM, Th^4+ [4] | k2 [5] | other results
O=C(c1cccc(=O)n1O)N1CCN(C(=O)c2cccc(=O)n2O)CCN(C(=O)c2cccc(=O)n2O)CCN(C(=O)c2cccc(=O)n2O)CC1 [DOTHOPO] | 6.43(9) | 5.46(1) | 5.05(3) | 4.28(6) | 21.34 | 33.3(6) | 27.8(4) | 28.7 | 43.7 | 35.3 | 54.2 ± 2.8 M⁻¹ s⁻¹ | log βmih, Zr^4+, [ZrLH]^+ [3]: 47.0(6); log βmih, Zr^4+, [ZrL] [3]: 42.9(4); log βmih, Th^4+, [ThLH]^+ [4]: 38.5(1); log βmih, Th^4+, [ThL] [4]: 34.4(1)
Cn1ccc(C(=O)NCCN(CCNC(=O)c2ccn(C)c(=O)c2O)CCC(Cc2ccc(NC(=O)CCC(=O)O)cc2)N(CCNC(=O)c2ccn(C)c(=O)c2O)CCNC(=O)c2ccn(C)c(=O)c2O)c(O)c1=O (centres unmarked) [L1] | – | – | – | – | – | – | – | 25.1 | 42.9 | 39.9 | – | pKa1 [6, 11]: 2.93(35); pKa2 [6, 11]: 4.39(8)^c; pKa3 [6, 11]: 4.73(34); pKa4 [6, 11]: 5.97(14); pKa5 [6, 11]: 6.90(5); pKa6 [6, 11]: 7.74(6); pKa7 [6, 11]: 9.58(16); ΣpKa ([6]; sum of the pKa values assigned to the HOPO units, Ref. 48): 21.99; log βmih, Fe^3+, [FeLH] [7]: 31.2(4); log βmih, Fe^3+, [FeL]^− [7]: 26.9(3); log βmih, Zr^4+, [ZrLH]^+ [8]: 50.6(2); log βmih, Zr^4+, [ZrL] [8]: 44.7(1); log βmih, Th^4+, [ThH−1L]^2− [9, 12]: 32.4(4); log βmih, Th^4+, [ThLH] [9, 12]: 45.9(4); log βmih, Th^4+, [ThL]^− [9, 12]: 41.7(3); log βThL ([9]; background, literature value): 41.72
O=c1cccc(CN2CCN(Cc3cccc(=O)n3O)CCN(Cc3cccc(=O)n3O)CCN(Cc3cccc(=O)n3O)CC2)n1O [MeDOTHOPO, 1,4,7,10-tetraazacyclododecane-1,4,7,10-tetra(methylene)tetrakis(1-hydroxy-2-pyridinone)] | 10.52(6) | 9.1(2) | 7.79(8) | 6.63(3) | 24.96 | 39.5(4) | 30.3(2) | 27.6 | >46^b | >48^b | 89.2 ± 8.5 M⁻¹ s⁻¹ | pKa5 ([1]; 25° C., I = 0.1M KCl, n = 5): 6.06(3); pKa6 ([1]; 25° C., I = 0.1M KCl, n = 5): 4.41(6)
O=C(O)CN(CCN(CC(=O)O)CC(=O)O)CCN(CC(=O)O)CC(=O)O [DTPA, reference compound] | – | – | – | – | – | – | – | – | – | – | 7.9 ± 0.9 M⁻¹ s⁻¹ | –
O=C(O)CN1CCN(CC(=O)O)CCN(CC(=O)O)CCN(CC(=O)O)CC1 [DOTA, 1,4,7,10-tetraazacyclododecane-N,N′,N″,N″-1,4,7,10-tetraacetic acid, reference compound] | – | – | – | – | – | – | – | – | – | – | – | complexation of Th^4+ (Arsenazo III displacement) ([5]; over 24 h at 25° C.): did not show any complexation; displacement of Arsenazo III from Th^4+ [10]: does not displace Arsenazo III
